From patent US7030093B2, “Antibiotic coating for porous bodies and method for its production as well as its use” (HERAEUS Kulzer GmbH & Co. KG, priority 2002, dated 2006)

experiment: Release of the antibiotic from the salts in an aqueous environment (finding in words); type: physicochemical; details: method not given

Release of the underlying antibiotic in an aqueous environment, in a delayed fashion:
Amikacin laurate
amikacin dodecyl sulfate
amikacin myristate
